IC50 data for eleven molecules are collected here from ChEMBL document CHEMBL5729064, “Benzofuran, benzothiophene, and indole analogs that inhibit the formation of tau oligomers and their method of use” (2022).

Each structure is given as a SMILES string.

For the test, the target named is Microtubule-associated protein tau (Homo sapiens, UniProt P10636). Put plainly: AlphaLisa Assay: Tau target (equal mixture of each construct at 300 nM) was prepared in buffer (Tris-HCl pH 7.4) and was incubated in 96-well plates at room temperature for 4 hours with vehicle control (DMSO) and a dose range of a compound of the disclosure (0.098 uM-50 uM). AlphaLisa acceptor beads & donor beads with ligands to the epitope tags (Perkin Elmer) were diluted (final 20 ug/mL per bead) in bead buffer (25 mM HEPES pH 7.4, 100 mM NaCl, 0.1% Tween-20), added to the wells and incubated 1 hour at room temperature. The positive control (non-incubated target) & blank (no tau) were prepared and mixed with beads in bead buffer and the plate was read immediately using the EnVision plate reader (Perkin Elmer). On the technique in general: Alpha assays give light when donor and acceptor beads are brought close together.
Chain of Microtubule-associated protein tau (P10636 whole entry): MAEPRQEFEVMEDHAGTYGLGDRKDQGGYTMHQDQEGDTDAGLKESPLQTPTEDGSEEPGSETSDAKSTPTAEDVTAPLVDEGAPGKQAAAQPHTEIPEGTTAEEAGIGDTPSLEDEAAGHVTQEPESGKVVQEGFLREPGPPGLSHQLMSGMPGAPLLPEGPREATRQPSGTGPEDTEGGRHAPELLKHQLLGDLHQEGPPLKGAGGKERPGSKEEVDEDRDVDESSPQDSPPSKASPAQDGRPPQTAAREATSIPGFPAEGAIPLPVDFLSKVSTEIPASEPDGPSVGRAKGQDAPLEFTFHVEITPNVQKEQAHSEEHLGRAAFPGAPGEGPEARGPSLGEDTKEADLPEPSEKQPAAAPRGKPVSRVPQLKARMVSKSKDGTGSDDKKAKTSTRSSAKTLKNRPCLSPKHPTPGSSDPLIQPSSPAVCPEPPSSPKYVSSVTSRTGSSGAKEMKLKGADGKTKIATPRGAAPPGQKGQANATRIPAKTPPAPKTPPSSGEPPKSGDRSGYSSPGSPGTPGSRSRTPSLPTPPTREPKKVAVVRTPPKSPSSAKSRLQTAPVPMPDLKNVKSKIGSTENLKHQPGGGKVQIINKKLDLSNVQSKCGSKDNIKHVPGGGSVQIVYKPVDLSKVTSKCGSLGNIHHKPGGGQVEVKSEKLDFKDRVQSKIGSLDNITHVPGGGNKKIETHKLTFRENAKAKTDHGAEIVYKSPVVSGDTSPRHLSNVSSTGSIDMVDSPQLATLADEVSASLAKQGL
As to `CC(=O)CCc1oc2ccc(-c3cccc(O)c3)cc2c1-c1ccc(C)o1`, the IC50 was 1390 nM.

For `CC(=O)CCc1oc2cc(-c3cccnc3)ccc2c1-c1ccc(C)o1`, the IC50 worked out at 4020 nM.

`Cc1ccc(-c2c(CCc3nc4ccccc4[nH]3)oc3ccc(Br)cc23)o1`: the IC50 was 2060 nM.

On to `CC(=O)CCc1oc2ccc(-c3cccnc3)cc2c1-c1ccc(C)o1`, for which the concentration for half-maximal inhibition (IC50) was 7550 nM.

On to `COc1ccc(-c2ccc3oc(CCC(C)=O)c(-c4ccc(C)o4)c3c2)cn1`, for which the concentration for half-maximal inhibition (IC50) was found to be 1270 nM.

For `COc1cc(-c2ccc3c(-c4ccc(C)o4)c(CCC(C)=O)oc3c2)ccn1`, the concentration for half-maximal inhibition (IC50) is 1570 nM.

Turning to `COc1cc(-c2ccc3oc(CCC(C)=O)c(-c4ccc(C)o4)c3c2)ccn1`, the half-maximal inhibitory concentration (IC50) was 100 nM.

With `Cc1ccc(-c2c(CCC(C)(C)O)oc3ccc(Br)cc23)o1`, the 50% inhibitory concentration (IC50) was 100 nM.

With `CC(=O)CCc1oc2ccc(-c3ccncc3)cc2c1-c1ccc(C)o1`, the concentration for half-maximal inhibition (IC50) turned out to be 6350 nM.

As to `COc1cccc(-c2ccc3oc(CCC(C)=O)c(-c4ccc(C)o4)c3c2)c1`, the IC50 was found to be 3030 nM.

On to `Cc1ccc(C(C)(O)CCc2oc3ccc(Br)cc3c2-c2ccc(C)o2)cc1` (stereo unspecified), for which the IC50 amounted to 1930 nM.

One may read the IC50 as the concentration that gives 50% inhibition.
